Test results: patent US11944626B2, “Small molecule inhibitors of ALDH and uses thereof” (The Regents of the University of Michigan, priority 2016, dated 2024)

Columns and labels:
[1] = target: T1, ALDH2 (Homo sapiens, UniProt P05091); experiment: Inhibition of ALDH isoenzymes (NAD(P)H formation at 340 nm, purified recombinant enzyme); assay type: biochemical; parameters: key to ALDH2 inhibition at 20 μM (N.I.): N.I.: No inhibition at 20 μM; details: compound at 20 μM; for remaining activity at 20 µM: read-out: ALDH2 % Control at 20 μM;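 on all read-outs here: run at 25 °C, started by adding substrate after 2 min preincubation, with 100-200 nM ALDH2, 200 µM NAD+, 100 µM propionaldehyde, 1% DMSO in BES buffer pH 7.5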
T1 sequence (P05091 18-517): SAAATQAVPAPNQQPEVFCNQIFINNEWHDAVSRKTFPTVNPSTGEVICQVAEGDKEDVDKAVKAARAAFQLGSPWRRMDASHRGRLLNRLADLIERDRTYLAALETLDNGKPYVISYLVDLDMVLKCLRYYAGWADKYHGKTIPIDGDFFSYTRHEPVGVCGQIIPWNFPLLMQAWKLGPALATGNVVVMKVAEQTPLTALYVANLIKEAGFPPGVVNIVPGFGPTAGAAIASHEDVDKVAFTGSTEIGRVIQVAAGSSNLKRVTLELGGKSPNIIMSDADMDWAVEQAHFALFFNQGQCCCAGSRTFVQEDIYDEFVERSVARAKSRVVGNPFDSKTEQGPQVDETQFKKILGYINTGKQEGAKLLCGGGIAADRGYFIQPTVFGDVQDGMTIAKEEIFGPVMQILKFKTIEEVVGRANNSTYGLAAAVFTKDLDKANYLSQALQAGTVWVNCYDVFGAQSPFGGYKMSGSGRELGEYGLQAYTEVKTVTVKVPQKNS

[2] = system: OVSAHO; experiment: OVSAHO Cell Viability; assay type: cell-based; details: for OVSAHO Cell Viability (50 μM) % CD133 + % ctrl / OVSAHO Cell Viability (30 μM) % CD133 + % ctrl: CD133+ cells; for OVSAHO Cell Viability (50 μM) Total Cell % ctrl / OVSAHO Cell Viability (30 μM) Total Cell % ctrl: total cells
[3] = target: T2, ALDH1A2 (Homo sapiens, UniProt O94788); experiment: Inhibition of ALDH isoenzymes (NAD(P)H formation at 340 nm, purified recombinant enzyme); assay type: biochemical; details: for remaining activity at 20 µM: compound at 20 μM, read-out: ALDH1A2 % Control at 20 μM
T2 sequence (O94788 1-518): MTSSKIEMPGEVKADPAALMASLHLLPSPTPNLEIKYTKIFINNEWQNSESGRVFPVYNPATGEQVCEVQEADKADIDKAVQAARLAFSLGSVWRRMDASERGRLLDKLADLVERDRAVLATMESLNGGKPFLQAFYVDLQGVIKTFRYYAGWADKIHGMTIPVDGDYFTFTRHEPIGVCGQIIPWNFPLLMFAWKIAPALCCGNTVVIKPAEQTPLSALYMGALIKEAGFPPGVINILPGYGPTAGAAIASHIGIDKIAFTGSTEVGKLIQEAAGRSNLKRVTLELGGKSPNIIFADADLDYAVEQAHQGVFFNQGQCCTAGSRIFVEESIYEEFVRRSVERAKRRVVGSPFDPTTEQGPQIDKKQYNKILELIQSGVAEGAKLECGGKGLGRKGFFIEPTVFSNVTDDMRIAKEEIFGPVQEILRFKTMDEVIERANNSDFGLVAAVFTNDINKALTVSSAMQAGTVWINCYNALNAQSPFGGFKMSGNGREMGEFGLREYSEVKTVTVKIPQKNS

[4] = target: T3, ALDH1A1 (Homo sapiens, UniProt P00352); experiment: as above; assay type: biochemical; details: for remaining activity at 20 µM: compound at 20 μM, read-out: ALDH1A1 % Control at 20 μM
T3 sequence (P00352 1-501): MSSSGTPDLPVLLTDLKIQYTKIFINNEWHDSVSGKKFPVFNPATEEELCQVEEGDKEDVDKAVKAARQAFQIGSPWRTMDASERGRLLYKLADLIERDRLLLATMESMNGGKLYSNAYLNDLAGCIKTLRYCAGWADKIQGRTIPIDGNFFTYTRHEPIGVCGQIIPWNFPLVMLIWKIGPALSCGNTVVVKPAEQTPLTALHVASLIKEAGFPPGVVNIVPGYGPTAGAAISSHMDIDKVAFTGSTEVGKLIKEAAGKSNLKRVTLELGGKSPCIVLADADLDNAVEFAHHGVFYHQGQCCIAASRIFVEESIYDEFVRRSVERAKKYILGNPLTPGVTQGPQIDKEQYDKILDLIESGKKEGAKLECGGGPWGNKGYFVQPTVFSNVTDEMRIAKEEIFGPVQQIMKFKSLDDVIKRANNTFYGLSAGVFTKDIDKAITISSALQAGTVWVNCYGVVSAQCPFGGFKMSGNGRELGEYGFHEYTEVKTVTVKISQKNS

[5] = 100-200 nM enzyme, 200 μM NAD+, 100 μM propionaldehyde, pH 7.5, 25° C.

Compound	remaining activity at 20 µM [1]	OVSAHO Cell Viability (50 μM) % CD133 + % ctrl [2]	OVSAHO Cell Viability (50 μM) Total Cell % ctrl [2]	other results
Cn1cc2c(=O)n(-c3ccccc3)c(SCc3cccc(F)c3)nc2n1 [Example 13, 6-((3-fluorobenzyl)thio)-2-methyl-5-phenyl-2H-pyrazolo[3,4-d]pyrimidin-4(5H)-one]	–	83 % ctrl	69 % ctrl	–
Cc1ccccc1-n1c(SCc2cccc(F)c2)nc2c(cnn2C2COC2)c1=O [Example 9, 6-((3-fluorobenzyl)thio)-1-(oxetan-3-yl)-5-(o-tolyl)-1H-pyrazolo[3,4-d]pyrimidin-4(5H)-one]	–	50 % ctrl	22 % ctrl	remaining activity at 20 µM [3]: 31%
Cn1ncc2c(=O)n(-c3cccnc3)c(SCc3cccc(F)c3)nc21 [Example 31, 6-((3-fluorobenzyl)thio)-1-methyl-5-(pyridin-3-yl)-1H-pyrazolo[3,4-d]pyrimidin-4(5H)-one]	–	81 % ctrl	79 % ctrl	–
C[C@@H](Sc1nc2c(cnn2C)c(=O)n1-c1ccccc1)c1ccccc1 [Example 65, (R)-1-methyl-5-phenyl-6-((1-phenylethyl)thio)-1H-pyrazolo[3,4-d]pyrimidin-4(5H)-one]	100%	–	–	OVSAHO Cell Viability (30 μM) % CD133 + % ctrl [2]: 117% ctrl; OVSAHO Cell Viability (30 μM) Total Cell % ctrl [2]: 75% ctrl
Cn1ncc2c(=O)n(Cc3ccccc3)c(SCc3cccc(F)c3)nc21 [Example 36, 5-benzyl-6-((3-fluorobenzyl)thio)-1-methyl-1H-pyrazolo[3,4-d]pyrimidin-4(5H)-one]	–	5 % ctrl	12 % ctrl	ALDH2 inhibition at 20 μM (N.I.) [1]: N.I.
Cn1c(SCc2cccc(F)c2)nc2c(cnn2C)c1=O [Example 37, 6-((3-fluorobenzyl)thio)-1,5-dimethyl-1H-pyrazolo[3,4-d]pyrimidin-4(5H)-one]	–	88 % ctrl	7 % ctrl	–
Cc1ccccc1-n1c(SCc2cccc(F)c2)nc2c(cnn2C)c1=O [Example 3, 6-((3-fluorobenzyl)thio)-1-methyl-5-(o-tolyl)-1H-pyrazolo[3,4-d]pyrimidin-4(5H)-one]	–	–	–	IC50 [3, 5]: > 20 µM
Cn1ncc2c(=O)n(-c3ccccc3)c(OCc3cccc(F)c3)nc21 [Example 60, 6-((3-fluorobenzyl)oxy)-1-methyl-5-phenyl-1H-pyrazolo[3,4-d]pyrimidin-4(5H)-one]	91%	–	–	OVSAHO Cell Viability (30 μM) % CD133 + % ctrl [2]: 76% ctrl; OVSAHO Cell Viability (30 μM) Total Cell % ctrl [2]: 35% ctrl
Cn1ncc2c(=O)n(-c3ccccc3)c(CNc3cccc(F)c3)nc21 [Example 49, 6-(((3-fluorophenyl)amino)methyl)-1-methyl-5-phenyl-1H-pyrazolo[3,4-d]pyrimidin-4(5H)-one]	89%	–	–	–
Cn1ncc2c(=O)n(-c3ccccc3)c(SCc3cccc(F)c3)nc21 [Example 27, 6-((3-fluorobenzyl)thio)-1-methyl-5-phenyl-1H-pyrazolo[3,4-d]pyrimidin-4(5H)-one]	–	–	–	ALDH2 inhibition at 20 μM (N.I.) [1]: N.I.
CC(Oc1nc2c(cnn2C)c(=O)n1-c1ccccc1)c1ccccc1 (stereo not shown) [Example 66, 1-methyl-5-phenyl-6-(1-phenylethoxy)-1H-pyrazolo[3,4-d]pyrimidin-4(5H)-one]	92%	–	–	OVSAHO Cell Viability (30 μM) Total Cell % ctrl [2]: 76% ctrl
Cn1ncc2c(=O)n(-c3ccncc3)c(SCc3cccc(F)c3)nc21 [Example 32, 6-((3-fluorobenzyl)thio)-1-methyl-5-(pyridin-4-yl)-1H-pyrazolo[3,4-d]pyrimidin-4(5H)-one]	–	75 % ctrl	66 % ctrl	IC50 [4, 5]: 5.2 µM
Cn1ncc2c(=O)n(-c3ccccc3)c(CSc3cccc(F)c3)nc21 [Example 51, 6-(((3-fluorophenyl)thio)methyl)-1-methyl-5-phenyl-1H-pyrazolo[3,4-d]pyrimidin-4(5H)-one]	92%	–	–	remaining activity at 20 µM [4]: 25%
O=c1c2cn[nH]c2nc(SCc2cccc(F)c2)n1-c1ccccc1 [Example 2, 6-((3-fluorobenzyl)thio)-5-phenyl-1H-pyrazolo[3,4-d]pyrimidin-4(5H)-one]	–	58 % ctrl	39 % ctrl	–
Cn1ncc2c(=O)n(-c3ccccn3)c(SCc3cccc(F)c3)nc21 [Example 34, 6-((3-fluorobenzyl)thio)-1-methyl-5-(pyridin-2-yl)-1H-pyrazolo[3,4-d]pyrimidin-4(5H)-one]	–	81 % ctrl	77 % ctrl	–
Cn1ncc2c(=O)n(-c3cccc(Cl)c3)c(SCc3cccc(F)c3)nc21 [Example 42, 5-(3-chlorophenyl)-6-((3-fluorobenzyl)thio)-1-methyl-1H-pyrazolo[3,4-d]pyrimidin-4(5H)-one]	137%	–	–	–
Cc1ccccc1-n1c(SCc2cccc(F)c2)nc2c(cnn2CC2COC2)c1=O [Example 11, 6-((3-fluorobenzyl)thio)-1-(oxetan-3-ylmethyl)-5-(o-tolyl)-1H-pyrazolo[3,4-d]pyrimidin-4(5H)-one]	–	69 % ctrl	30 % ctrl	–

Now from value to molecule, other results behind:

remaining activity at 20 µM [1]	Compound	OVSAHO Cell Viability (50 μM) % CD133 + % ctrl [2]	OVSAHO Cell Viability (50 μM) Total Cell % ctrl [2]	other results
153%	Cn1ncc2c(=O)n(-c3ccc(Cl)cc3)c(SCc3cccc(F)c3)nc21 [Example 43, 5-(4-chlorophenyl)-6-((3-fluorobenzyl)thio)-1-methyl-1H-pyrazolo[3,4-d]pyrimidin-4(5H)-one]	–	–	–
110%	Cn1ncc2c(=O)n(-c3ccccc3)c(/C=C/c3cccc(F)c3)nc21 [Example 47, (E)-6-(3-fluorostyryl)-1-methyl-5-phenyl-1H-pyrazolo[3,4-d]pyrimidin-4(5H)-one]	–	–	remaining activity at 20 µM [3]: 15%; remaining activity at 20 µM [4]: 28%
103%	CN(Cc1nc2c(cnn2C)c(=O)n1-c1ccccc1)c1cccc(F)c1 [Example 62, 6-(((3-fluorophenyl)(methyl)amino)methyl)-1-methyl-5-phenyl-1H-pyrazolo[3,4-d]pyrimidin-4(5H)-one]	–	–	OVSAHO Cell Viability (30 μM) % CD133 + % ctrl [2]: 96% ctrl; OVSAHO Cell Viability (30 μM) Total Cell % ctrl [2]: 65% ctrl
107%	CC(Sc1nc2c(cnn2C)c(=O)n1-c1ccccc1)c1ccccc1 (racemic) [Example 61, 1-methyl-5-phenyl-6-((1-phenylethyl)thio)-1H-pyrazolo[3,4-d]pyrimidin-4(5H)-one]	–	–	OVSAHO Cell Viability (30 μM) % CD133 + % ctrl [2]: 88% ctrl; OVSAHO Cell Viability (30 μM) Total Cell % ctrl [2]: 7% ctrl
100%	CC(Sc1nc2nn(CC3COC3)cc2c(=O)n1-c1ccccc1)c1ccccc1 (stereo not shown) [Example 64, 2-(oxetan-3-ylmethyl)-5-phenyl-6-((1-phenylethyl)thio)-2H-pyrazolo[3,4-d]pyrimidin-4(5H)-one]	–	–	–
